B1: interferon-alpha-1 (protein, UniProt P01562 24-189, looked up)
Interferon alpha-1/13: CDLPETHSLDNRRTLMLLAQMSRISPSSCLMDRHDFGFPQEEFDGNQFQKAPAISVLHELIQQIFNLFTTKDSSAAWDEDLLDKFCTELYQQLNDLEACVMQEERVGETPLMNADSILAVKKYFRRITLYLTEKKYSPCAWEVVRAEIMRSLSLSTNLQERLRRKE
notes: enhancer molecule, cytokine purchased from Sigma

What was measured:
Assay type in all cases: cell-based
[1] = test system: A498; assay: WST-8 cell viability assay; conditions: in combination with cetuximab, 72 hours
Method: (§1) Day 1: cells were harvested cells from flask (4 mL accutase for T175 for 3-5 minutes), and spin down for 5 mins at 1200 rpm. The supernatant was poured off, and the pellet gently resuspended in 1 mL media. Countess counts were performed, and the cells were diluted in media (10% FBS). With multi-channel pipette, 2500 cells were seeded in 100 uL of media (10% FBS) in each well of 96 well plate. The cells were let to adhere and grow for 24 hours. Day 2: serial drug dilutions of MTAs+/−EMs at 5× of concentrations (as done above) were performed in media (10% FBS). 20 uL of media form each well of the 96 well plate (80 uL media left in wells) was removed, and 20 uL of appropriate 5× drug dilutions was added to each respective well (for a 1× conc). The cells were incubated with drug for 72 hours in 37C incubator. Day 5: 10 uL of WST-8 reagent was added to each well of the 96 well plate and mixed gently. the plates were incubated up to 4 hours at 37C in dark, and absorbance readings were taken at […] and 600 nm wavelengths at 1, 2, 3 and 4h, until control absorbance levels were 1.5-2.0).
(§2) WST-8 Assay: MTA and EM effects on cell viability were measured by Cell Counting Kit8 (WST-8) colorimetric assay using water-soluble tetrazolium salt WST-8 reagent (Vita Scientific Cat. #DBOC00128). For the assay, cells were seeded in 96-well plates at 2,500 cells per well, in 100 μL of 10% FBS-containing media. After 24 hours, a 1 nM to 10 μM range of MTA and/or 1 ng/mL to 1 mg/mL range of EM doses was added and incubated for 72 hours. After treatment, a 10% volume of WST-8 reagent was added to each well and cells were incubated at 37° C. for up to 4 hours. Solution absorbance was measured at wavelengths of 450 nm and 600 nm at 1-, 2-, 3-, and 4-hour's incubation. Percentage viability of drug-treated cells was calculated relative to untreated control cells. Results were confirmed by three independent experiments.
(§3) For studying the effects of various molecularly targeted agents (MTAs) and enhancer molecules (EMs) alone as well as in combination: HCC827, PC-9, A427, Calu-6, H2228, H358, H1299, H460, H292, H1838, H2170, and H226 (non-small cell lung cancer; NSCLC); and SK-MES-1 […], CAL27, OE21, KYSE-70, A-253, BICR-16, PE/CA-PJ15 and Ca9-22 (head and neck squamous cell carcinoma; HNSCC); SK-MEL-2, SK-MEL-28, RPMI-7951 and A7 (melanoma); HTB-38 and HCT116 (colorectal cancer; CRC); BxPC-3 and HPAF-II (pancreatic cancer); HEPG2 (hepatocellular carcinoma; HCC); A498 (renal cell carcinoma; RCC) cells were used. Other cell lines, including those from other cancer types, or cells collected from more complex sample types such as xenografts and clinical samples can be used. Ultimately, these combinations can be utilized in various clinical and pre-clinical samples and studies. Using the WST-8 cell viability assay, a MTA+EM-induced anti-cancer/anti-growth activity in multiple cell lines was discovered (FIGS. 8-15). Other viability assays, for example, MTT, HoPI staining, dye exclusion (e.g. trypan blue), can be used readily. […] The cut-off value for classifying a “strong anti-cancer/anti-growth enhancement” was a response resulting in >70% reduction in cell survival compared to untreated control cells (100%), while showing greater reduction compared to both MTA and EM alone.

[2] = test system: BICR-16; assay: WST-8 cell viability assay; conditions: in combination with IFN-γ, 72 hours
Method: as §1, §2, §3

[3] = test system: Calu-6; assay: WST-8 cell viability assay; conditions: in combination with IFN-γ, 72 hours
Method: as §1, §2, §3

[4] = test system: HTB-38; assay: WST-8 cell viability assay; conditions: in combination with IFN-γ, 72 hours
Method: as §1, §2, §3

[5] = test system: OE21; assay: WST-8 cell viability assay; conditions: in combination with GSK-458, 72 hours
Method: as §1, §2, §3

[6] = test system: PC-9; assay: WST-8 cell viability assay; conditions: in combination with trametinib; PC-9 (EGFR E746_A750del); 72 hours
Method: as §1, §2, §3

[7] = test system: RPMI-7951; assay: WST-8 cell viability assay
Method: as §1, §2, §3

[8] = test system: erlotinib-resistant PC-9; assay: WST-8 cell viability assay
Method: as §1, §2, §3

[9] = test system: H1581 (EGFR WT); assay: MTT cell survival assay; conditions: EM2 (10, 30, 50 ng/ml) combined with Erlotinib 7 μM; Erl-resistant EGFR WT cells
Method: (§4) Cells (10^4 cells/well) were grown in 96-well plates and exposed for 72 hours to different doses of erlotinib, alone or in combination with EM2. The percentage of cell survival was determined using the 3-(4, 5-dimethylthiazol-2-yl)-2, 5-diphenyltetrazolium bromide (MTT). Single drug alone and vehicle were kept as controls.

[10] = test system: H1975 (EGFR-double mutant line); assay: MTT cell survival assay; conditions: EM2 10 ng/ml combined with erlotinib; Erl-resistant H1975; 72 hours
Method: as §4

[11] = test system: HCC827 (EGFR deletion mutant line); assay: MTT cell survival assay; conditions: 10 ng/ml of EM2 combined with erlotinib, 72 hours
Method: as §4

[12] = test system: clinical sample (WT EGFR tumor, patient who smoked); assay: Immunocytochemistry biomarker staining of a clinical sample; conditions: erlotinib+EM2 combination
Method: Cells at the seeding density of 10,000 cells per well were plated in 8 chamber slides in complete RPMI culture medium for overnight. After 24h cells were treated with RPMI media without the serum along with selected dose of erlotinib+EM2 and kept for additional 72 hours in incubation condition set at 37° C. in a humidified atmosphere of 95% air and 5% CO2. The chamber slides were rinsed with PBS before performing ICC staining. An Ambay kit (Catalog #10011A) purchased from Ambay Immune Sensors and Controls, LLC (AISC) (MD, USA) was used to perform ICC staining as per the kit instructions and using poly-HRP from Biogenix (CA, USA) was used to enable signal amplification and detection of specific bound antibody targets. A respective isotype antibody control was be kept for each biomarker. Counterstaining was performed before mounting and analysis.

[13] = test system: Ca9-22; assay: WST-8 cell viability assay
Method: as §1, §2, §3

[14] = in combination with GSK-458, 72 hours
[15] = in combination with trametinib, 72 hours

Molecule	anti-cancer/growth enhancement (WST-8 cell viability) [1]	anti-cancer/growth enhancement (WST-8 cell viability) [2]	anti-cancer/growth enhancement (WST-8 cell viability) [3]	anti-cancer/growth enhancement (WST-8 cell viability) [4]	anti-cancer/growth enhancement (WST-8 cell viability) [5]	anti-cancer/growth enhancement (WST-8 cell viability) [6]	anti-cancer/growth enhancement (WST-8 cell viability) [7, 14]	anti-cancer/growth enhancement (WST-8 cell viability) ([7]; in combination with dabrafenib, 72 hours)	anti-cancer/growth enhancement (WST-8 cell viability) [8, 14]	anti-cancer/growth enhancement (WST-8 cell viability) [8, 15]	cell survival (MTT), sensitization to erlotinib [9]	cell survival (MTT), response to erlotinib [10]	cell survival (MTT), sensitivity to erlotinib [11]	cell apoptosis (nuclear staining of Bcl2, nuclear vacuolization) [12]	anti-cancer/growth enhancement (WST-8 cell viability) [13, 14]	anti-cancer/growth enhancement (WST-8 cell viability) ([13]; in combination with GSK-795, 72 hours)	anti-cancer/growth enhancement (WST-8 cell viability) ([13]; in combination with everolimus, 72 hours)	anti-cancer/growth enhancement (WST-8 cell viability) ([13]; in combination with metformin, 72 hours)	anti-cancer/growth enhancement (WST-8 cell viability) ([13]; in combination with osimertinib, 72 hours)	anti-cancer/growth enhancement (WST-8 cell viability) [13, 15]
tumor necrosis factor-alpha [EM2]	moderate-to-strong anti-cancer/growth enhancement	moderate-to-strong anti-cancer/growth enhancement	moderate-to-strong anti-cancer/growth enhancement	moderate-to-strong anti-cancer/growth enhancement	moderate-to-strong anti-cancer/growth enhancement	moderate-to-strong anti-cancer/growth enhancement	moderate-to-strong anti-cancer/growth enhancement	moderate-to-strong anti-cancer/growth enhancement	moderate-to-strong anti-cancer/growth enhancement	moderate-to-strong anti-cancer/growth enhancement	sensitized to Erl	enhanced response	increased sensitivity to Erl	promoted cell apoptosis						
B1															anti-cancer/growth enhancement	anti-cancer/growth enhancement	anti-cancer/growth enhancement	anti-cancer/growth enhancement	anti-cancer/growth enhancement	anti-cancer/growth enhancement

From patent US20220339257A1, “METHODS TO INCREASE THE SENSITIVITY AND REVERSING THE RESISTANCE TO DRUGS” (Biomarker Strategies, LLC, priority 2019, published 2022)
